Source: patent publication US20220257595A1, “MACITENTAN FOR USE IN TREATING PORTOPULMONARY HYPERTENSION” (ACTELION PHARMACEUTICALS LTD, priority 2019, published 2022)

Assays:
patients with PoPH [1] = experiment: PORTICO: WHO functional class; type: in vivo, human
Experimental: (iii) WHO functional class: WHO FC was evaluated at Screening, Baseline (Visit 2/Randomization), and then every visit until EOT-DB or EOT-OL, whichever came last.
Handling of missing data: For change from baseline to Weeks 4, 8 and 12 in 6MWD and WHO FC, the last available value (including baseline) was carried forward unless the patient died before, or on Day 42, 70, 98 (the upper limit treatment days of Weeks 4, 8 and 12 windows, respectively), in which case the following rules considering worst case were used to replace all the missing values from the week after death up to Week 12: • For 6MWD, worst fixed value was set to 0, • For WHO FC, worst fixed value was set to class IV, • For change from baseline to Week 12 in NT-proBNP, the same imputation rule as for PVR was applied as described herein.
Statistical analysis: The change from baseline to Week 12 in mRAP, mPAP, cardiac index, TPR and SVO2 were analyzed on the FAS (with imputation) using an ANCOVA with factors for treatment group, background PAH-specific therapy at baseline (Yes/No as per IXRS, randomization stratification factor), region (Europe/North America/Latin America as per IXRS, randomization stratification factor) and a covariate for baseline corresponding variable. Other RHC variables are listed only. WHO FC is summarized on the FAS (with imputation) by time point and treatment group using frequency tables. Changes from baseline in WHO FC were dichotomized as worsening (i.e., change >0) versus no change or improvement (i.e., change ≤0). Worsening was analyzed using a logistic regression model (exact) with covariates for treatment group, background PAH-specific therapy at baseline (Yes/No as per IXRS, randomization stratification factor) and region (Europe/North America/Latin America as per IXRS, randomization stratification factor). 6MWD is summarized on the FAS (with imputation) by time point and treatment group using descriptive statistics. Change from baseline to each time point is summarized similarly. Change from baseline in 6MWD (up to Week 12) was analyzed using a mixed-effect model repeated measure (MMRM) with factors for treatment group, time point, treatment by time interaction, background PAH-specific therapy at baseline (Yes/No as per IXRS, randomization stratification factor) and region (Europe/North America/Latin America as per IXRS, randomization stratification factor), and covariates for baseline 6MWD and WHO FC. An unstructured covariance matrix was used to account for the correlation between repeated measurements from the same patient. NT-proBNP is summarized on the FAS (with imputation) by time point and treatment group using descriptive statistics as well as geometric means and CVs. The ratio of Week 12 to baseline NT-proBNP is summarized similarly. The ratio versus baseline in NT-proBNP was log-transformed and analyzed using an ANCOVA with covariates for treatment group, background PAH-specific therapy at baseline (Yes/No as per IXRS, randomization stratification factor), region (Europe/North America/Latin America as per IXRS, randomization stratification factor) and baseline log NT-proBNP.
Macitentan treatment period: Changes from macitentan baseline to each time point in WHO FC, 6MWD, NT-pro BNP and Borg dyspnea index (related to the macitentan treatment period) are summarized for the MTS using descriptive statistics.

patients with PoPH [2] = experiment: PORTICO safety: vital signs, body weight, BMI; conditions: in vivo
From the text: For the evaluation of treatment-emergent safety endpoints in the DB phase, the observation period for each individual subject started at the time of the first administration of macitentan or placebo and ended with the start of OL treatment or 30 days after DB treatment discontinuation (whichever occurred first). The safety variables listed below apply to the DB treatment-emergent period and the macitentan treatment-emergent period. The DB treatment-emergent period was defined as the period from the DB treatment start date up to the EOT-DB+30 days or to the EOT-DB for patients entering OL. The macitentan treatment-emergent period was defined as the period from the first intake of macitentan up to end of macitentan treatment (EOMT)+30 days. EOMT was defined as EOT-DB (for patient who received macitentan only in the DB period) or EOT-OL when applicable. […]

**Q.** What does the source list for CCCNS(=O)(=O)Nc1ncnc(OCCOc2ncc(Br)cn2)c1-c1ccc(Br)cc1 [macitentan, N-[5-(4-Bromophenyl)-6-[2-[(5-bromo-2-pyrimidinyl)oxy]ethoxy]-4-pyrimidinyl]-N′-propylsulfamide]?
**A.** WHO FC Class I at Week 12, total (patients with PoPH [1]; FAS with imputation, N=43): 3 (7.0) n (%); WHO FC Class II at Week 12, total (patients with PoPH [1]; FAS with imputation, N=43): 27 (62.8) n (%); WHO FC Class III at Week 12, total (patients with PoPH [1]; FAS with imputation, N=43): 13 (30.2) n (%); WHO FC Class IV at Week 12, total (patients with PoPH [1]; FAS with imputation, N=43): 0 n (%); WHO FC Improved, baseline to Week 12 (patients with PoPH [1]; FAS with imputation, N=43): 9 (20.9) n (%); WHO FC Not Worsened, baseline to Week 12 (patients with PoPH [1]; FAS with imputation, N=43): 37 (86.0) n (%); WHO FC Unchanged, baseline to Week 12 (patients with PoPH [1]; FAS with imputation, N=43): 28 (65.1) n (%); WHO FC Worsened, baseline to Week 12 (patients with PoPH [1]; FAS with imputation, N=43): 6 (14.0) n (%); WHO FC shift: baseline Class I to Week 12 Class I (patients with PoPH [1]; FAS with imputation, N=43): 1 (2.3) n (%); WHO FC shift: baseline Class I to Week 12 Class II (patients with PoPH [1]; FAS with imputation, N=43): 0 n (%); WHO FC shift: baseline Class I to Week 12 Class III (patients with PoPH [1]; FAS with imputation, N=43): 0 n (%); WHO FC shift: baseline Class I to Week 12 Class IV (patients with PoPH [1]; FAS with imputation, N=43): 0 n (%); WHO FC shift: baseline Class II to Week 12 Class I (patients with PoPH [1]; FAS with imputation, N=43): 1 (2.3) n (%); WHO FC shift: baseline Class II to Week 12 Class II (patients with PoPH [1]; FAS with imputation, N=43): 20 (46.5) n (%); WHO FC shift: baseline Class II to Week 12 Class III (patients with PoPH [1]; FAS with imputation, N=43): 6 (14.0) n (%); WHO FC shift: baseline Class II to Week 12 Class IV (patients with PoPH [1]; FAS with imputation, N=43): 0 n (%); WHO FC shift: baseline Class III to Week 12 Class I (patients with PoPH [1]; FAS with imputation, N=43): 1 (2.3) n (%); WHO FC shift: baseline Class III to Week 12 Class II (patients with PoPH [1]; FAS with imputation, N=43): 7 (16.3) n (%); WHO FC shift: baseline Class III to Week 12 Class III (patients with PoPH [1]; FAS with imputation, N=43): 7 (16.3) n (%); WHO FC shift: baseline Class III to Week 12 Class IV (patients with PoPH [1]; FAS with imputation, N=43): 0 n (%); Patients with no change in WHO FC at Week 12 (patients with PoPH [1]; FAS, macitentan group): 65.1%; Patients with worsening in WHO FC at Week 12 (patients with PoPH [1]; FAS, macitentan group, 6 patients (4 imputed)): 14.0%; Patients with improvement in WHO FC at Week 12 (patients with PoPH [1]; FAS, macitentan group, 9 patients): 20.9%; Patients with worsening in WHO FC at Week 24 (patients with PoPH [1]; MTS without imputation, macitentan in both periods, 2/34): 5.9%; Patients with no change in WHO FC at Week 24 (patients with PoPH [1]; MTS without imputation, macitentan in both periods, 21/34): 61.8%; Patients with worsening in WHO FC at Week 12 after macitentan initiation in OL period (patients with PoPH [1]; MTS without imputation, vs macitentan baseline, 3/35): 8.6%; Patients with no change in WHO FC at Week 12 after macitentan initiation in OL period (patients with PoPH [1]; MTS without imputation, vs macitentan baseline, 24/35): 68.6%; Effect on vital signs, body weight or BMI (patients with PoPH [2]): no indication of any notable effect
